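Tested at 5 concentrations; 48 h exposure; 96-well plates; endpoints linearly interpolated, else capped at highest concentration. GI50 is the concentration that inhibits growth by half.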 The source made the active and inactive calls. Rule as the data show it: active = GI50 up to about 1.1 µM and inactive = higher.
Key:
Assay in all cases: DTP human tumour cell line panel, 48 h
[1] = tested on: HOP-92
[2] = tested on: SK-MEL-28
[3] = tested on: 786-0
[4] = tested on: OVCAR-5
[5] = tested on: SN12C
[6] = tested on: MDA-MB-435
[7] = tested on: NCI-H522
[8] = tested on: DU-145
[9] = tested on: M14
[10] = tested on: OVCAR-8
[11] = tested on: NCI-H23
[12] = tested on: SK-MEL-2
[13] = tested on: HCT-15
[14] = tested on: HCC 2998
[15] = tested on: Malme-3M
[16] = tested on: CAKI-1
[17] = tested on: COLO 205
[18] = tested on: UACC-62
[19] = tested on: NCI/ADR-RES
[20] = tested on: MOLT-4

Compound	GI50 [1]	GI50 [2]	GI50 [3]	GI50 [4]	GI50 [5]	GI50 [6]	GI50 [7]	GI50 [8]	GI50 [9]	GI50 [10]	GI50 [11]	GI50 [12]	GI50 [13]	GI50 [14]	GI50 [15]	GI50 [16]	GI50 [17]	GI50 [18]	GI50 [19]	GI50 [20]
[N-]=[N+]=NCC(=O)c1cnc(O)nc1O	> 100 µM (inactive)	> 100 µM (inactive)	> 100 µM (inactive)	> 100 µM (inactive)	> 100 µM (inactive)	> 100 µM (inactive)	> 100 µM (inactive)	> 100 µM (inactive)	> 100 µM (inactive)	> 100 µM (inactive)	> 100 µM (inactive)	> 100 µM (inactive)	> 100 µM	> 100 µM (inactive)	> 100 µM (inactive)	> 100 µM (inactive)	> 100 µM (inactive)	> 100 µM (inactive)	> 100 µM (inactive)	
CC1=Cc2ccc(C)cc2C(=O)C1=O	6.18 µM (inactive)	21.6 µM (inactive)	1.85 µM (inactive)	18.3 µM (inactive)	5.04 µM (inactive)	2.06 µM (inactive)	1.64 µM (inactive)	16.8 µM (inactive)	4.81 µM (inactive)	5.3 µM (inactive)	17.3 µM (inactive)	19.9 µM (inactive)	19.3 µM	14.9 µM (inactive)		5.07 µM (inactive)	6.07 µM (inactive)	20.2 µM (inactive)	18.8 µM (inactive)	0.605 µM (active)
CC(C)OC(=O)c1ccc(NCC2=CC(=O)C=CC2=O)cc1Cl	4.89 µM (inactive)	17.2 µM (inactive)	14.1 µM (inactive)	22.2 µM (inactive)	16.1 µM (inactive)	9.44 µM (inactive)	1.02 µM (active)	18.3 µM (inactive)	27.8 µM (inactive)	5.68 µM (inactive)	13.2 µM (inactive)	31.7 µM (inactive)	4.4 µM	15.2 µM (inactive)		2.19 µM (inactive)	4.07 µM (inactive)	13.2 µM (inactive)	7.93 µM (inactive)	3.72 µM (inactive)
CNC1C(O)C(OC2C(N)CC(N)C(OC3OC(C(C)O)C(O)C(O)C3N)C2O)OCC1(C)O (stereo not drawn)		> 100 µM (inactive)	> 100 µM (inactive)	> 100 µM (inactive)	> 100 µM (inactive)	> 100 µM (inactive)	> 100 µM (inactive)	> 100 µM (inactive)	> 100 µM (inactive)	> 100 µM (inactive)	> 100 µM (inactive)	> 100 µM (inactive)	> 100 µM	> 100 µM (inactive)	> 10 µM (inactive)	> 100 µM (inactive)	> 100 µM (inactive)	> 100 µM (inactive)	> 100 µM (inactive)	> 100 µM (inactive)
COCN1C(=O)[C@@H]2CCCN2C(=O)c2ccc([N+](=O)[O-])cc21	> 100 µM (inactive)	> 100 µM (inactive)	> 100 µM (inactive)	> 100 µM (inactive)	> 100 µM (inactive)	> 100 µM (inactive)	> 100 µM (inactive)	> 100 µM (inactive)	> 100 µM (inactive)	> 100 µM (inactive)	> 100 µM (inactive)	> 100 µM (inactive)	> 100 µM	> 100 µM (inactive)		> 100 µM (inactive)	> 100 µM (inactive)	> 100 µM (inactive)	> 100 µM (inactive)	> 100 µM (inactive)
COc1ccc(C(OCC2OC(n3ccc(Oc4c(F)c(F)c(F)c(F)c4F)nc3=O)CC2OP(OCCC#N)N(C(C)C)C(C)C)(c2ccccc2)c2ccc(OC)cc2)cc1 (stereo not drawn)	> 100 µM (inactive)	> 100 µM (inactive)	> 100 µM (inactive)	> 100 µM (inactive)	> 100 µM (inactive)	> 100 µM (inactive)	> 100 µM (inactive)	> 100 µM (inactive)	> 100 µM (inactive)	> 100 µM (inactive)	42.8 µM (inactive)	> 100 µM (inactive)	> 100 µM	> 100 µM (inactive)		> 100 µM (inactive)	> 100 µM (inactive)	> 100 µM (inactive)	> 100 µM (inactive)	> 100 µM (inactive)
NNC(=O)CC(=O)Nc1cccc(Cl)c1	47.3 µM (inactive)	> 100 µM (inactive)	> 100 µM (inactive)	> 100 µM (inactive)	> 100 µM (inactive)	> 100 µM (inactive)	25.4 µM (inactive)	> 100 µM (inactive)		> 100 µM (inactive)	> 100 µM (inactive)	> 100 µM (inactive)	> 100 µM	> 100 µM (inactive)	> 100 µM (inactive)	> 100 µM (inactive)	> 100 µM (inactive)	> 100 µM (inactive)	2.21 µM (inactive)	> 100 µM (inactive)
Cc1cc(C)n2nc3nc(N)c(C#N)c(-c4ccccc4)c3c2n1	> 100 µM (inactive)	> 100 µM (inactive)	> 100 µM (inactive)	> 100 µM (inactive)	> 100 µM (inactive)	> 100 µM (inactive)	> 100 µM (inactive)	> 100 µM (inactive)	> 100 µM (inactive)	> 100 µM (inactive)	> 100 µM (inactive)	> 100 µM (inactive)	> 100 µM	> 100 µM (inactive)	> 100 µM (inactive)	> 100 µM (inactive)	> 100 µM (inactive)	> 100 µM (inactive)	> 100 µM (inactive)	> 100 µM (inactive)
O=C(/C=C/c1cccc([N+](=O)[O-])c1)N1CCN(CCOC(c2ccccc2)c2ccccc2)CC1	16.6 µM (inactive)	25.9 µM (inactive)	38.2 µM (inactive)	> 100 µM (inactive)	57.5 µM (inactive)	33.4 µM (inactive)	24.5 µM (inactive)	47.3 µM (inactive)	32.9 µM (inactive)	30.6 µM (inactive)	43.6 µM (inactive)		31.1 µM	23.7 µM (inactive)	31.8 µM (inactive)	> 100 µM (inactive)	21.7 µM (inactive)	33.8 µM (inactive)	48.6 µM (inactive)	12.4 µM (inactive)
Cc1cc(C2CC(O)C(CO)O2)c(F)cc1F (stereo not drawn)	> 100 µM (inactive)	> 100 µM (inactive)	> 100 µM (inactive)	> 100 µM (inactive)	> 100 µM (inactive)	> 100 µM (inactive)	> 100 µM (inactive)	> 100 µM (inactive)	> 100 µM (inactive)	> 100 µM (inactive)	> 100 µM (inactive)		> 100 µM	> 100 µM (inactive)	> 100 µM (inactive)	> 100 µM (inactive)	> 100 µM (inactive)	> 100 µM (inactive)	> 100 µM (inactive)	> 100 µM (inactive)
CC/C=C\C/C=C\C/C=C\CCCCCCCC(=O)OC(COC(=O)CCCCCCCCCCCCCCCCC)COC1OC(CO)C(O)C(O)C1O (stereo not drawn)	> 25 µM (inactive)	> 25 µM (inactive)	> 25 µM (inactive)	> 25 µM (inactive)	> 25 µM (inactive)	> 25 µM (inactive)	9.53 µM (inactive)	> 25 µM (inactive)	> 25 µM (inactive)	15.9 µM (inactive)	> 25 µM (inactive)	> 25 µM (inactive)	> 25 µM	> 25 µM (inactive)		> 25 µM (inactive)	> 25 µM (inactive)	> 25 µM (inactive)	23.6 µM (inactive)	> 25 µM (inactive)
O=S(=O)(O)CCCc1cccc2ccccc12	> 100 µM (inactive)	> 100 µM (inactive)	> 100 µM (inactive)	> 100 µM (inactive)	> 100 µM (inactive)	> 100 µM (inactive)	> 100 µM (inactive)	> 100 µM (inactive)	> 100 µM (inactive)	> 100 µM (inactive)	> 100 µM (inactive)	> 100 µM (inactive)	> 100 µM	> 100 µM (inactive)	> 100 µM (inactive)	> 100 µM (inactive)	> 100 µM (inactive)	> 100 µM (inactive)	> 100 µM (inactive)	> 100 µM (inactive)
CNc1nc2c(C)ccc3nc(N(C)C)nc-3c2n1C	> 10 µM (inactive)	> 10 µM (inactive)	> 10 µM (inactive)	> 10 µM (inactive)	7.96 µM (inactive)	> 10 µM (inactive)	> 10 µM (inactive)	> 10 µM (inactive)	> 10 µM (inactive)	> 10 µM (inactive)	> 10 µM (inactive)	> 10 µM (inactive)	> 10 µM	> 10 µM (inactive)	> 10 µM (inactive)	> 10 µM (inactive)	> 10 µM (inactive)		> 10 µM (inactive)	> 10 µM (inactive)
COc1cc(-c2cc(=O)c3c(O)c(OC)c(OC)c(OC)c3o2)cc(OC)c1OC [GARDENIN]	4.04 µM (inactive)	> 100 µM (inactive)	3.72 µM (inactive)	> 68.9 µM (inactive)	3.94 µM (inactive)	> 100 µM (inactive)	9.55 µM (inactive)	> 100 µM (inactive)	> 100 µM (inactive)	4.57 µM (inactive)	15.1 µM (inactive)	> 55.6 µM (inactive)	> 100 µM	22.5 µM (inactive)	> 100 µM (inactive)		> 100 µM (inactive)	32.4 µM (inactive)	7.29 µM (inactive)	> 100 µM (inactive)

From ChEMBL document CHEMBL1201862, “PubChem BioAssay data set” (2004)
